Test results: patent EP4389827A1, “AMINOGLYCOSIDE-LINKED PHOTOSENSITIZERS” (Centre National de la Recherche Scientifique, priority 2022, dated 2024)
“And” between values parts separate entries of the source, which are not always exact repeats. Equal entries are not always repeated. Where two headings read alike, the source gives them in different places.

Key:
[1] = Solubility in water; type: physicochemical
[2] = tested on: A. baumannii DSM30011; assay: Minimal inhibitory concentration (EUCAST), with or without 660 nm irradiation; type: cell-based, Acinetobacter baumannii; details: for MIC: Acinetobacter baumannii, DSM30011, light or radiation study, 18 h, read-out: MIC
Protocol: (§1) Acinetobacter baumannii DSM30011, Bacillus subtilis 168, Pseudomonas aeruginosa PA14, P. aeruginosa PAO1, Staphylococcus aureus Mu50, S. aureus Newman and S. aureus USA300 were all grown in MHB-CA at 37°C with an agitation of 180 rpm. Candida albicans SC5314 was grown in yeast extract peptone dextrose broth at 35°C with an agitation of 180 rpm.
(§2) Minimal inhibitory concentrations (MICs) for selected bacteria were investigated according to the EUCAST guidelines. Serial dilutions of the compounds, photosensitizers and aminoglycosides were made in MHB-CA in 384-well plates. Stationary-phase cells were diluted in MHB-CA to have a final concentration of 5.5 × 10^5 CFU/mL. Samples were incubated in the dark for 20 minutes at 37°C and either irradiated at 660 nm for 30 minutes with a LED device or kept in the dark. Irradiated samples received a total of 168 mJ/mm^2. Plates were then incubated at 37°C for 18 hours and MICs were evaluated visually. Triplicates were done and the synergy, or fractional inhibitory concentration (FIC), was calculated according to Doern et al., 2014: FIC = (MIC of AB)/(MIC of A) + (MIC of AB)/(MIC of B) [formula]

[3] = tested on: P. aeruginosa PA14; assay: as above; type: cell-based, Pseudomonas aeruginosa; details: for MIC: read-out: MIC
Protocol: as §1, §2

[4] = tested on: P. aeruginosa PAO1; assay: as above; type: cell-based, Pseudomonas aeruginosa; details: for MIC: Pseudomonas aeruginosa, PAO1, light or radiation study, 18 h, read-out: MIC
Protocol: as §1, §2

[5] = tested on: S. aureus Mu50; assay: as above; type: cell-based; details: Staphylococcus aureus, MU50, light or radiation study, 18 h, read-out: MIC
Protocol: as §1, §2

[6] = tested on: S. aureus USA300; assay: as above; type: cell-based; details: Staphylococcus aureus, USA300, light or radiation study, 18 h
Protocol: as §1, §2

[7] = tested on: S. aureus Newman; assay: as above; type: cell-based, Staphylococcus aureus; details: for MIC: Staphylococcus aureus, NEWMAN, light or radiation study, 18 h, read-out: MIC
Protocol: as §1, §2

[8] = tested on: S. aureus Mu50; assay: Antibacterial photodynamic therapy on planktonic cells (CFU count); type: cell-based, Staphylococcus aureus; details: for log reduction at 10 µM: Staphylococcus aureus, MU50, light or radiation study, 0.5 h, irradiated 660 nm 30 minutes, 5 J/mm^2, read-out: Mean CFU drop (survival dropped by)
Protocol: as §1
(§3) Cells were brought to stationary phase by incubating them in MHB-CA for at least 18 hours at 37°C with 180 rpm and diluted to an optical density of 1.0 just before the experiment. Cells were incubated for 20 minutes with either the compounds, photosensitizers alone, or aminoglycosides alone. Unless stated otherwise, a concentration of 10 µM was used for all experiments and samples were irradiated for 30 minutes at 660 nm with the Solis-660C lamp from ThorLabs, receiving a total of 5 J/mm^2. After illumination, cells were washed with phosphate-buffered saline (PBS) 1X, serially diluted and plated on Mueller-Hinton agar. The next day, colony forming units (CFUs) were counted.

[9] = tested on: S. aureus Newman; assay: as above; type: cell-based, Staphylococcus aureus; details: Staphylococcus aureus, NEWMAN, light or radiation study, 0.5 h, 10 µM, irradiated 660 nm 30 minutes, 5 J/mm^2, read-out: Mean CFU drop (survival dropped by)
Protocol: as §1, §3

[10] = tested on: S. aureus USA300; assay: as above; type: cell-based; details: Staphylococcus aureus, USA300, light or radiation study, 0.5 h, irradiated 660 nm 30 minutes, 5 J/mm^2, read-out: Mean CFU drop (survival dropped by)
Protocol: as §1, §3

[11] = tested on: A. baumannii DSM30011; assay: Antibacterial photodynamic therapy on biofilm cells; type: cell-based, Acinetobacter baumannii
Excerpt: (§4) Compounds Neo-Ce6 and Tobra-Ce6 caused strong drop in survival for biofilms of A. baumannii […], P. aeruginosa species and S. aureus Mu50. […] Tobra-Ce6 had its strongest effect on A. baumannii DSM30011 with more than 4 log10 CFU/mL drop in survival and a drop of 1.7 log10 CFU/mL in P. aeruginosa PA14. Table 2: aPDT results for biofilm cells expressed in drop in the log10 CFU/mL compared to controls.

[12] = tested on: P. aeruginosa PA14; assay: as above; type: cell-based, Pseudomonas aeruginosa
Excerpt: as §4

[13] = tested on: P. aeruginosa PAO1; assay: as above; type: cell-based, Pseudomonas aeruginosa
Excerpt: as §4

[14] = tested on: S. aureus Mu50; assay: as above; type: cell-based, Staphylococcus aureus
Excerpt: as §4

[15] = tested on: S. aureus USA300; assay: as above; type: cell-based, Staphylococcus aureus
Excerpt: as §4

[16] = tested on: S. aureus USA300 persister cells; assay: Antibacterial photodynamic therapy on persister cells; type: cell-based, Staphylococcus aureus; details: persister cells (6 hours, 2 mM neomycin); aPDT at 10 µM, 5 J/mm^2 (Figure 6a)
Protocol: Persister plateau and AG concentration varied from one species to another. In S. aureus USA300, a stable plateau was obtained following 6 hours of incubation with 2 mM of neomycin. […] This control is crucial to make sure that a persister state has been achieved. […] As there are no significant differences between irradiated and non-irradiated samples, however, the production of singlet oxygen may not be the factor leading to cell death. In S. aureus Newman, cells were treated for 24 hours with 1 mM of neomycin. […] Although this synergy does exist, like in S. aureus USA300, there is no significant difference in survival for irradiated and non-irradiated samples, except for Ce6.

[17] = with (+) irradiation, 660 nm 30 minutes, 168 mJ/mm^2
[18] = conjugate with irradiation, from FIC

Row | SMILES | solubility [1] | MIC [2, 17] [µM] | MIC ([2]; without (-) irradiation) [µM] | MIC [4, 17] [µM] | MIC ([4]; without (-) irradiation) [µM] | MIC [5, 17] [µM] | MIC ([5]; without (-) irradiation) [µM] | MIC [6, 17] [µM] | MIC ([6]; without (-) irradiation) [µM] | MIC [7, 17] [µM] | MIC ([7]; without (-) irradiation) [µM] | log reduction at 10 µM [8] | log reduction at 10 µM [9] | log reduction at 10 µM [10] | drop in the log10 CFU/mL compared to controls ([11]; - irradiation) [log10 CFU/mL] | drop in the log10 CFU/mL compared to controls ([12]; + irradiation) | drop in the log10 CFU/mL compared to controls ([12]; - irradiation) [log10 CFU/mL] | drop in the log10 CFU/mL compared to controls ([13]; + irradiation) [log10 CFU/mL] | drop in the log10 CFU/mL compared to controls ([13]; - irradiation) [log10 CFU/mL] | drop in the log10 CFU/mL compared to controls ([14]; + irradiation) [log10 CFU/mL] | further results
1 | C=Cc1c(C)c2cc3nc(c(CC(=O)O)c4[nH]c(cc5nc(cc1[nH]2)C(C)=C5CC)c(C)c4C(=O)O)[C@@H](CCC(=O)O)[C@@H]3C [Ce6, chlorin e6] | poorly soluble in water | > 64 | > 64 | > 64 | > 64 | 4 | > 64 | 16 to 32 | > 64 | 64 | > 64 | 3.2 | ~3.6 | 3.2 | 0.45 | 0.60 log10 CFU/mL | 0.29 | 0.25 | 0.28 | 0.36 | MIC ([3]; Pseudomonas aeruginosa, PA14, light or radiation study, 18 h, without (-) irradiation): > 64 µM; MIC [3, 17]: > 64 µM; drop in the log10 CFU/mL compared to controls ([11]; + irradiation): 0.71 log10 CFU/mL; drop in the log10 CFU/mL compared to controls ([14]; - irradiation): -0.005 log10 CFU/mL; drop in the log10 CFU/mL compared to controls ([15]; + irradiation): 0.73 log10 CFU/mL; drop in the log10 CFU/mL compared to controls ([15]; - irradiation): 0.33 log10 CFU/mL; persister cell survival (in words) [16]: some killing
2 | C=Cc1c(C)c2cc3nc(c(CC(=O)O)c4[nH]c(cc5nc(cc1[nH]2)C(C)=C5CC)c(C)c4C(=O)O)[C@@H](CCC(=O)NC[C@H]1O[C@H](O[C@@H]2[C@@H](O)[C@H](O[C@H]4O[C@H](CN)[C@@H](O)C[C@H]4N)[C@@H](N)C[C@H]2N)[C@H](O)[C@@H](N)[C@@H]1O)[C@@H]3C [Tobra-Ce6] | highly soluble | 2 to 4 | > 16 | 4 to 8 | > 16 | 2 to 4 | 16 | 2 to 4 | > 16 | 2 | > 16 | 5.4 | ~3.9 | 3.5 | 1.58 | 1.7 log10 CFU/mL and 1.69 log10 CFU/mL | 0.85 | 1.25 | 0.79 | 1.32 | Synergy [2, 18]: +; MIC ([3]; Pseudomonas aeruginosa, PA14, light or radiation study, 18 h, with (+) irradiation, 660 nm 30 minutes, 168 mJ/mm^2): > 16 µM; Synergy [3, 18]: -; MIC ([3]; without (-) irradiation): > 16 µM; Synergy [4, 18]: -; Synergy [7, 18]: +; survival (in words) ([8]; irradiated samples, 5 J/mm^2 (Figure 3a)): high bacterial death; drop in the log10 CFU/mL compared to controls ([14]; - irradiation): 0.37 log10 CFU/mL; drop in the log10 CFU/mL compared to controls ([15]; + irradiation): 0.14 log10 CFU/mL; drop in the log10 CFU/mL compared to controls ([15]; - irradiation): 0.28 log10 CFU/mL; persister cell survival (in words) [16]: close to or under the detection limit
